Laboratory results published in ChEMBL document CHEMBL1275501, “Plasmid-mediated quinolone resistance pump QepA2 in an Escherichia coli isolate from France” (2008).
Converted amounts (≈) assume the structure as drawn.

Columns and labels:
[1] = system: Escherichia coli; test: Antimicrobial activity against Escherichia coli TOP10 harboring pQep plasmid carrying qepA2 gene by disk diffusion method; type: functional
[2] = system: Escherichia coli; test: Antimicrobial activity against azide-resistant Escherichia coli J53 harboring pCTX-M carrying blaCTX-M-15 and pQep plasmid carrying qepA2 gene by disk diffusion method; type: functional
[3] = system: Escherichia coli; test: Antimicrobial activity against Escherichia coli BicA expressing blaTEM-1, blaCTX-M-15 and qepA2 gene by disk diffusion method
[4] = system: Escherichia coli; test: Antimicrobial activity against azide-resistant Escherichia coli J53 harboring pCTX-M plasmid carrying blaCTX-M-15 gene by disk diffusion method; type: functional
[5] = system: Escherichia coli; test: Antimicrobial activity against azide-resistant Escherichia coli J53 by disk diffusion method; type: functional
[6] = system: Escherichia coli; test: Antimicrobial activity against Escherichia coli TOP10 by disk diffusion method; type: functional
[7] = system: Escherichia coli; test: Antimicrobial activity against Escherichia coli TOP10 harboring pQep plasmid carrying qepA2 gene by disk diffusion method in presence of beta-lactamase inhibitor clavulanic acid; type: functional
[8] = system: Escherichia coli; test: Antimicrobial activity against azide-resistant Escherichia coli J53 harboring pCTX-M carrying blaCTX-M-15 and pQep plasmid carrying qepA2 gene by disk diffusion method in presence of beta-lactamase inhibitor clavulanic acid; type: functional
[9] = system: Escherichia coli; test: Antimicrobial activity against azide-resistant Escherichia coli J53 harboring pCTX-M plasmid carrying blaCTX-M-15 gene by disk diffusion method in presence of beta-lactamase inhibitor clavulanic acid; type: functional
[10] = system: Escherichia coli; test: Antimicrobial activity against azide-resistant Escherichia coli J53 by disk diffusion method in presence of beta-lactamase inhibitor clavulanic acid; type: functional
[11] = system: Escherichia coli; test: Antimicrobial activity against Escherichia coli TOP10 by disk diffusion method in presence of beta-lactamase inhibitor clavulanic acid; type: functional
[12] = system: Escherichia coli; test: Antimicrobial activity against Escherichia coli BicA expressing blaTEM-1, blaCTX-M-15 and qepA2 gene by disk diffusion method in presence of beta-lactamase inhibitor clavulanic acid; type: functional

Compound	MIC [1] [µg/mL]	MIC [2] [µg/mL]	MIC [3] [µg/mL]	MIC [4] [µg/mL]	MIC [5] [µg/mL]	MIC [6] [µg/mL]	MIC [7] [µg/mL]	MIC [8] [µg/mL]	MIC [9] [µg/mL]	MIC [10] [µg/mL]	MIC [11] [µg/mL]	MIC [12] [µg/mL]
CO/N=C(\C(=O)N[C@@H]1C(=O)N2C(C(=O)[O-])=C(C[N+]3(C)CCCC3)CS[C@H]12)c1csc(N)n1	0.12 (≈ 0.25 µM)	16 (≈ 33.3 µM)	> 32	16 (≈ 33.3 µM)	0.01 (≈ 0.0208 µM)							
NCC[C@H](O)C(=O)N[C@@H]1C[C@H](N)[C@@H](O[C@H]2O[C@H](CN)[C@@H](O)[C@H](O)[C@H]2O)[C@H](O)[C@H]1O[C@H]1O[C@H](CO)[C@@H](O)[C@H](N)[C@H]1O [AMIKACIN]	1 (≈ 1.71 µM)	1 (≈ 1.71 µM)	2 (≈ 3.42 µM)	1 (≈ 1.71 µM)	1 (≈ 1.71 µM)	1 (≈ 1.71 µM)						
CC1(C)S[C@@H]2[C@H](NC(=O)[C@H](N)c3ccc(O)cc3)C(=O)N2[C@H]1C(=O)O [AMOXICILLIN]	> 256	> 256	> 256	> 256	4 (≈ 10.9 µM)	4 (≈ 10.9 µM)	16	16	16	4	4	16
C[C@H]1[C@H](NC(=O)/C(=N\OC(C)(C)C(=O)O)c2csc(N)n2)C(=O)N1S(=O)(=O)O [AZTREONAM]		16 (≈ 36.7 µM)	> 32	16 (≈ 36.7 µM)								
CO/N=C(\C(=O)N[C@@H]1C(=O)N2C(C(=O)O)=C(COC(C)=O)CS[C@H]12)c1csc(N)n1 [CEFOTAXIME]	0.06 (≈ 0.132 µM)	> 32	> 32	> 32	0.06 (≈ 0.132 µM)	0.06 (≈ 0.132 µM)						
CC(C)(O/N=C(\C(=O)N[C@@H]1C(=O)N2C(C(=O)[O-])=C(C[n+]3ccccc3)CS[C@H]12)c1csc(N)n1)C(=O)O [CEFTAZIDIME]	0.12 (≈ 0.22 µM)	16 (≈ 29.3 µM)	> 32	16 (≈ 29.3 µM)	0.12 (≈ 0.22 µM)	0.06 (≈ 0.11 µM)						
CC(=O)OCC1=C(C(=O)O)N2C(=O)[C@@H](NC(=O)Cc3cccs3)[C@H]2SC1 [CEPHALOTHIN]	8 (≈ 20.2 µM)	> 256	> 256	> 256	8 (≈ 20.2 µM)	4 (≈ 10.1 µM)						
O=C(N[C@H](CO)[C@H](O)c1ccc([N+](=O)[O-])cc1)C(Cl)Cl [CHLORAMPHENICOL]	> 256	> 256	> 256	8 (≈ 24.8 µM)	8 (≈ 24.8 µM)	4 (≈ 12.4 µM)						
O=C(O)c1cn(C2CC2)c2cc(N3CCNCC3)c(F)cc2c1=O [CIPROFLOXACIN]			> 32									
CCN1CCN(c2cc3c(cc2F)c(=O)c(C(=O)O)cn3C2CC2)CC1 [ENROFLOXACIN]	0.008 (≈ 0.0223 µM)	0.06 (≈ 0.167 µM)	> 32	0.06 (≈ 0.167 µM)	0.03 (≈ 0.0835 µM)	0.003 (≈ 0.00835 µM)						
COc1c(N2CCNC(C)C2)c(F)cc2c(=O)c(C(=O)O)cn(C3CC3)c12 (configuration not stated) [GATIFLOXACIN]	0.01 (≈ 0.0266 µM)	0.12 (≈ 0.32 µM)	> 32	0.06 (≈ 0.16 µM)	0.01 (≈ 0.0266 µM)	0.003 (≈ 0.00799 µM)						
C[C@@H](O)[C@H]1C(=O)N2C(C(=O)O)=C(SCCNC=N)C[C@H]12 [IMIPENEM ANHYDROUS]		0.25 (≈ 0.835 µM)	0.5 (≈ 1.67 µM)	0.25 (≈ 0.835 µM)	0.06 (≈ 0.2 µM)							
C[C@H]1COc2c(N3CCN(C)CC3)c(F)cc3c(=O)c(C(=O)O)cn1c23.C[C@H]1COc2c(N3CCN(C)CC3)c(F)cc3c(=O)c(C(=O)O)cn1c23.O [LEVOFLOXACIN]			> 32									
COc1c(N2C[C@@H]3CCCN[C@@H]3C2)c(F)cc2c(=O)c(C(=O)O)cn(C3CC3)c12 [MOXIFLOXACIN]	0.01 (≈ 0.0249 µM)	0.12 (≈ 0.299 µM)	> 32			0.004 (≈ 0.00996 µM)						
CCn1cc(C(=O)O)c(=O)c2ccc(C)nc21 [NALIDIXIC ACID]	1.5 (≈ 6.46 µM)	4 (≈ 17.2 µM)	> 256	4 (≈ 17.2 µM)	4 (≈ 17.2 µM)	1 (≈ 4.31 µM)						
CCN[C@@H]1C[C@H](N)[C@@H](O[C@H]2OC(CN)=CC[C@H]2N)[C@H](O)[C@H]1O[C@H]1OC[C@](C)(O)[C@H](NC)[C@H]1O [NETILMICIN]	0.25 (≈ 0.526 µM)	0.12 (≈ 0.252 µM)	0.5 (≈ 1.05 µM)	0.12 (≈ 0.252 µM)	0.12 (≈ 0.252 µM)	0.25 (≈ 0.526 µM)						
CCn1cc(C(=O)O)c(=O)c2cc(F)c(N3CCNCC3)cc21 [NORFLOXACIN]	0.5 (≈ 1.57 µM)	1 (≈ 3.13 µM)	> 256	0.06 (≈ 0.188 µM)	0.06 (≈ 0.188 µM)	0.03 (≈ 0.0939 µM)						
CC1COc2c(N3CCN(C)CC3)c(F)cc3c(=O)c(C(=O)O)cn1c23 (configuration not stated) [OFLOXACIN]			> 32									
CCn1cc(C(=O)O)c(=O)c2cc(F)c(N3CCN(C)CC3)cc21 [PEFLOXACIN]		0.06 (≈ 0.18 µM)	> 32	0.06 (≈ 0.18 µM)	0.06 (≈ 0.18 µM)	0.03 (≈ 0.09 µM)						
CO[C@H]1/C=C/O[C@@]2(C)Oc3c(C)c(O)c4c(O)c(c(/C=N/N5CCN(C)CC5)c(O)c4c3C2=O)NC(=O)/C(C)=C\C=C\[C@H](C)[C@H](O)[C@@H](C)[C@@H](O)[C@@H](C)[C@H](OC(C)=O)[C@@H]1C [RIFAMPIN]	16 (≈ 19.4 µM)	8 (≈ 9.72 µM)	16 (≈ 19.4 µM)	8 (≈ 9.72 µM)	8 (≈ 9.72 µM)	16 (≈ 19.4 µM)						
Cc1cc(NS(=O)(=O)c2ccc(N)cc2)no1 [SULFAMETHOXAZOLE]	> 256	> 256	> 256	16 (≈ 63.2 µM)	16 (≈ 63.2 µM)	16 (≈ 63.2 µM)						
CN(C)[C@@H]1C(O)=C(C(N)=O)C(=O)[C@@]2(O)C(O)=C3C(=O)c4c(O)cccc4[C@@](C)(O)[C@H]3C[C@@H]12 [TETRACYCLINE]	> 256	2 (≈ 4.5 µM)	> 256	2 (≈ 4.5 µM)	2 (≈ 4.5 µM)	2 (≈ 4.5 µM)						
CC1(C)S[C@@H]2[C@H](NC(=O)[C@H](C(=O)O)c3ccsc3)C(=O)N2[C@H]1C(=O)O [TICARCILLIN]	> 256	> 256	> 256	> 256	4 (≈ 10.4 µM)	4 (≈ 10.4 µM)						
NC[C@H]1O[C@H](O[C@H]2[C@H](O)[C@@H](O[C@H]3O[C@H](CO)[C@@H](O)[C@H](N)[C@H]3O)[C@H](N)C[C@@H]2N)[C@H](N)C[C@@H]1O [TOBRAMYCIN]	0.5 (≈ 1.07 µM)	0.25 (≈ 0.535 µM)	0.5 (≈ 1.07 µM)	0.25 (≈ 0.535 µM)	0.12 (≈ 0.257 µM)	0.5 (≈ 1.07 µM)						
COc1cc(Cc2cnc(N)nc2N)cc(OC)c1OC [TRIMETHOPRIM]	> 256	> 256	> 256	0.25 (≈ 0.861 µM)	0.25 (≈ 0.861 µM)	0.12 (≈ 0.413 µM)						
GENTAMICIN	0.25	0.12		0.12	0.12	0.25						
